From the supplement of paper PMC11451515

System: P12-Ichikawa
Assay: cell viability relative to DMSO control; higher = less cytotoxic
Conditions: 48 h
Method in brief: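 Three leukemia lines were tested: NOMO1 and SEM at 500 cells/well and P12-Ichikawa at 1000 cells/well. Each was adapted for at least four passages in each medium and seeded in 5 μl in 1536-well plates, and library compounds in DMSO were pin-dosed from 47 μM to 0.79 nM in 11 threefold steps. After 48 h at 37°C, CellTiter-Glo One luminescence was read. Viability is a percentage relative to DMSO wells on each plate, with cell-free wells as background.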

[1] = HPLM + 10% dialyzed FBS, 0.000781 µM
[2] = HPLM + 10% dialyzed FBS, 0.00234 µM
[3] = HPLM + 10% dialyzed FBS, 0.00702 µM
[4] = HPLM + 10% dialyzed FBS, 0.0211 µM
[5] = HPLM + 10% dialyzed FBS, 0.0632 µM
[6] = HPLM + 10% dialyzed FBS, 0.19 µM
[7] = HPLM + 10% dialyzed FBS, 0.569 µM
[8] = HPLM + 10% dialyzed FBS, 1.71 µM
[9] = HPLM + 10% dialyzed FBS, 5.12 µM
[10] = HPLM + 10% dialyzed FBS, 15.4 µM
[11] = HPLM + 10% dialyzed FBS, 46.1 µM
[12] = RPMI 5 mM glucose + 10% FBS, 0.000781 µM
[13] = RPMI 5 mM glucose + 10% FBS, 0.00234 µM
[14] = RPMI 5 mM glucose + 10% FBS, 0.00702 µM
[15] = RPMI 5 mM glucose + 10% FBS, 0.0211 µM
[16] = RPMI 5 mM glucose + 10% FBS, 0.0632 µM
[17] = RPMI 5 mM glucose + 10% FBS, 0.19 µM
[18] = RPMI 5 mM glucose + 10% FBS, 0.569 µM
[19] = RPMI 5 mM glucose + 10% FBS, 1.71 µM
[20] = RPMI 5 mM glucose + 10% FBS, 5.12 µM
[21] = RPMI 5 mM glucose + 10% FBS, 15.4 µM
[22] = RPMI 5 mM glucose + 10% FBS, 46.1 µM
[23] = RPMI 5 mM glucose + 10% dialyzed FBS, 0.000781 µM
[24] = RPMI 5 mM glucose + 10% dialyzed FBS, 0.00234 µM
[25] = RPMI 5 mM glucose + 10% dialyzed FBS, 0.00702 µM
[26] = RPMI 5 mM glucose + 10% dialyzed FBS, 0.0211 µM
[27] = RPMI 5 mM glucose + 10% dialyzed FBS, 0.0632 µM
[28] = RPMI 5 mM glucose + 10% dialyzed FBS, 0.19 µM
[29] = RPMI 5 mM glucose + 10% dialyzed FBS, 0.569 µM
[30] = RPMI 5 mM glucose + 10% dialyzed FBS, 1.71 µM
[31] = RPMI 5 mM glucose + 10% dialyzed FBS, 5.12 µM
[32] = RPMI 5 mM glucose + 10% dialyzed FBS, 15.4 µM
[33] = RPMI 5 mM glucose + 10% dialyzed FBS, 46.1 µM

Row | Compound | cell viability [1] | cell viability [2] | cell viability [3] | cell viability [4] | cell viability [5] | cell viability [6] | cell viability [7] | cell viability [8] | cell viability [9] | cell viability [10] | cell viability [11] | cell viability [12] | cell viability [13] | cell viability [14] | cell viability [15] | cell viability [16] | cell viability [17] | cell viability [18] | cell viability [19] | cell viability [20] | cell viability [21] | cell viability [22] | cell viability [23] | cell viability [24] | cell viability [25] | cell viability [26] | cell viability [27] | cell viability [28] | cell viability [29] | cell viability [30] | cell viability [31] | cell viability [32] | cell viability [33]
1 | CNC(=O)c1cc(COc2nnc(Nc3ccc(Cl)cc3)c3ccoc23)ccn1 | 119% | 109% | 110% | 105% | 106% | 113% | 105% | 103% | 106% | 101% | 89.4% | 117% | 116% | 118% | 115% | 116% | 113% | 112% | 110% | 105% | 107% | 102% | 114% | 130% | 108% | 114% | 104% | 115% | 116% | 100% | 111% | 101% | 97.4%
2 | Cc1ccc(Nc2nccc(N(C)c3ccc4c(C)n(C)nc4c3)n2)cc1[S+](N)(=O)[O-] | 105% | 102% | 105% | 110% | 108% | 114% | 113% | 111% | 104% | 91.9% | 20.8% | 106% | 115% | 109% | 109% | 113% | 116% | 113% | 111% | 120% | 78.4% | 23.7% | 99.7% | 101% | 104% | 102% | 102% | 99.9% | 110% | 107% | 108% | 83.3% | 27.8%
3 | COc1c(C)c2c(c(O)c1C/C=C(\C)CCC(=O)OCCN1CCOCC1)C(=O)OC2 | 106% | 114% | 114% | 104% | 124% | 106% | 109% | 109% | 58.2% | 40.1% | 35.6% | 104% | 105% | 111% | 109% | 105% | 106% | 110% | 93.9% | 50.2% | 30.1% | 26% | 109% | 100% | 100% | 104% | 98.3% | 106% | 102% | 88.3% | 57.1% | 35.4% | 30.3%
4 | OCCN1CCN(CCCN2c3ccccc3Sc3ccc(C(F)(F)F)cc32)CC1 | 95.4% | 98.3% | 103% | 109% | 110% | 108% | 73.3% | 113% | 74.2% | 18.2% | 8.87% | 107% | 108% | 109% | 123% | 109% | 114% | 87.8% | 107% | 74.2% | 36.6% | 9.41% | 99.3% | 99.7% | 111% | 110% | 107% | 107% | 96.4% | 104% | 78.7% | 59.8% | 12.7%
5 | CNC(=O)c1cc(Oc2ccc(NC(=O)Nc3ccc(Cl)c(C(F)(F)F)c3)c(F)c2)ccn1 | 86.4% | 89.8% | 93.8% | 91.3% | 92% | 95.4% | 87.8% | 91% | 88.3% | 81.4% | 67.7% | 85.4% | 92.6% | 87.8% | 97.8% | 86.2% | 95.6% | 94.2% | 83.6% | 87.1% | 86.8% | 65.5% | 91.7% | 89.9% | 90.5% | 98.6% | 94.1% | 91.5% | 84.9% | 90.3% | 84.7% | 89.1% | 73.5%
6 | O=C(O)c1nn(Cc2ccc(Cl)cc2Cl)c2ccccc12 | 94.1% | 93% | 97.1% | 92.5% | 89.5% | 84% | 81.1% | 88.9% | 89.6% | 79.2% | 87.1% | 87.5% | 86.6% | 95.3% | 85.2% | 86.1% | 85.7% | 84.3% | 82.2% | 89.5% | 85.2% | 84.2% | 87.6% | 79.1% | 89.1% | 86.4% | 81.3% | 74% | 73.9% | 74.4% | 81.5% | 71.7% | 76.9%
7 | CC(=O)O[C@@]12CO[C@@H]1C[C@H](O)[C@]3(C)[C@@H]2[C@H](OC(=O)C4=CC=CC=C4)[C@]5(O)C[C@H](O)/C(=C(/[C@@H](O)C3=O)C5(C)C)C | 97.5% | 106% | 72.1% | 115% | 114% | 117% | 120% | 120% | 98.1% | 36.6% | 13.7% | 100% | 110% | 69.7% | 113% | 116% | 119% | 122% | 113% | 88.6% | 28.7% | 7.33% | 100% | 114% | 77.5% | 117% | 113% | 112% | 121% | 119% | 104% | 43.9% | 18.5%
8 | CCNC(=O)c1noc(-c2cc(C(C)C)c(O)cc2O)c1-c1ccc(CN2CCOCC2)cc1 | 103% | 111% | 112% | 113% | 109% | 52% | 53.9% | 50.1% | 52% | 45.8% | 44.2% | 111% | 116% | 115% | 117% | 97.4% | 41% | 43.5% | 39.6% | 47.2% | 40.1% | 35.8% | 96.9% | 112% | 108% | 115% | 100% | 42.1% | 43.8% | 41.1% | 44.9% | 39.4% | 37.3%
9 | Cc1ccc([S+](=O)([O-])NC(=O)NN2CC3CCCC3C2)cc1 (stereo not drawn) | 107% | 110% | 110% | 114% | 112% | 106% | 100% | 80.8% | 66.4% | 44.5% | 22.7% | 110% | 108% | 103% | 102% | 113% | 108% | 97.7% | 70.5% | 57.3% | 34.7% | 20.1% | 107% | 109% | 116% | 106% | 112% | 102% | 93.4% | 72.4% | 51.4% | 36.3% | 23.9%
10 | Cc1ccnc(N[S+](=O)([O-])c2ccc(NC(=O)Nc3ccc([S+](=O)([O-])Nc4nccc(C)n4)cc3)cc2)n1 | 92.4% | 97.5% | 104% | 108% | 102% | 47.4% | 56.9% | 7.44% | 8.58% | 9.29% | 7.33% | 87.9% | 85.5% | 94.6% | 106% | 114% | 58.6% | 60.3% | 7.51% | 7.48% | 8.73% | 5.6% | 86.9% | 97.1% | 95.4% | 101% | 102% | 46.7% | 59.4% | 7.71% | 7.35% | 8.39% | 5.02%
11 | O=C(c1ccc(C(=O)N2CCC(N3CCCC3)CC2)c(Nc2ccccc2)c1)N1CCC(N2CCCC2)CC1 | 103% | 103% | 103% | 106% | 108% | 102% | 106% | 109% | 98.9% | 96.5% | 94.5% | 104% | 95.3% | 93.7% | 101% | 98.1% | 100% | 95.8% | 97.4% | 100% | 92.1% | 95.4% | 98.3% | 97.5% | 95.9% | 96.3% | 100% | 101% | 103% | 101% | 91.1% | 96.1% | 86.1%
12 | CN(C)[C@H]\1[C@@H]2[C@@H](O)[C@H]3\C(=C(O)/[C@]2(O)C(=O)\C(=C1O)C(N)=O)C(=O)C4=C(C=CC=C4O)[C@@]3(C)O |  |  |  |  |  |  |  |  |  |  |  | 130% | 123% | 125% | 127% | 127% | 131% | 130% | 106% | 96.1% | 128% | 116% |  |  |  |  |  |  |  |  |  |  | 
13 | COc1ccccc1N1CCN(CC(O)COc2cccc3ccccc23)CC1 (stereo not drawn) | 119% | 123% | 127% | 117% | 125% | 132% | 116% | 121% | 120% | 106% | 109% |  |  |  |  |  |  |  |  |  |  |  | 121% | 123% | 126% | 117% | 127% | 125% | 115% | 109% | 107% | 90.4% | 82.4%
14 | COc1ccc2c(c1)CC[C@@H](CN(C)CC(=O)O)[C@H]2c1ccccc1 |  |  |  |  |  |  |  |  |  |  |  |  |  |  |  |  |  |  |  |  |  |  | 116% | 122% | 129% | 119% | 119% | 116% | 119% | 105% | 54.9% | 28.8% | 29.1%
15 | CCOC\1=C(/C(=O)NC2=CC=C(OC3=C(Cl)C(=NC=C3)N)C(=C2)F)C(=O)N(\C=C1)C4=CC=C(F)C=C4 | 107% | 110% | 102% | 115% | 104% | 101% | 94.7% | 91.3% | 93.8% | 81.2% | 27.4% | 99.2% | 104% | 111% | 98.5% | 102% | 102% | 96.1% | 95.2% | 97.7% | 80.1% | 30.9% | 106% | 101% | 104% | 104% | 102% | 91% | 99.7% | 81.9% | 91.8% | 68.5% | 28.1%
16 | CC/C(=C(\c1ccccc1)c1ccc(OCCN(C)C)cc1)c1ccccc1 | 102% | 106% | 102% | 104% | 95.8% | 109% | 104% | 109% | 113% | 104% | 86.3% | 99.9% | 102% | 96.2% | 118% | 89.7% | 102% | 104% | 99.4% | 108% | 100% | 83.9% | 113% | 108% | 113% | 114% | 95.3% | 112% | 117% | 117% | 104% | 102% | 76.9%
